Experimental data: patent US20240050434A1, “HORMAD1 THERAPEUTICS” (Royal Cancer Hospital, priority 2020, published 2024)
Entries after “also recorded” stand apart in the source; their conditions may differ.

Legend:
Format in all cases: cell-based
[1] = system: organoids from spontaneous tumours of WB1P mouse with or without human HORMAD1; assay: Organoids from genetically engineered mouse model tumours, viability by cell titre glo; settings: increasing doses, 14 days post drugging
Source text: In a further experiment, HORMAD1 was expressed within a genetically engineered mouse model of triple-negative breast cancer (original model published in Annunziato et al., 2019). Human HORMAD1 was expressed in the WB1P mouse (Annunziato et al., 2019) using a transgene and derived organoids from spontaneous tumours.
Genetically engineered mouse models were generated by conditionally deleting BRCA1 and P53 in breast epithelia (Liu et al., 2007). Human HORMAD1 fused to luciferase was conditionally expressed under a breast-specific promoter. Spontaneous tumours from these mice were isolated and grown as organoids, treated with increasing doses of BUB1 inhibitor, BAY-1816032. 14 days post drugging, cell viability was estimated using cell titre glo reagent. Surviving fractions were calculated (normalised to vehicle treated cells). Data from 3 replicas, analysed using 2-way ANOVA.

[2] = system: RPE1 cells expressing a doxycycline-inducible HORMAD1 construct; assay: Cell viability by cell titre glo in RPE1 cells with doxycycline-inducible HORMAD1
Protocol: RPE1 cells expressing a doxycycline-inducible HORMAD1 construct were treated with doxycycline or vehicle. […] Six days post HORMAD1 induction and 5 days post drug, cell viability was estimated using cell titre glo reagent. Surviving fractions were calculated (normalised to vehicle treated cells).
(§1) RPE1 and SUM159 cells expressing a doxycycline-inducible HORMAD1 construct were treated with doxycycline or vehicle. […] Surviving fractions were calculated (normalised to vehicle treated cells). (FIGS. 7a, b and 14c and d). Data from 3 replicas was analysed using 2-way ANOVA. 5 days post drugging, cell viability was estimated using cell titre glo reagent. Surviving fractions were calculated (normalised to vehicle treated cells). Data from 4 replicas was analysed using 2-way ANOVA.
RPE1 cells expressing a doxycycline-inducible HORMAD1 construct were treated with doxycycline or vehicle. […] 5 days post drugging, cell viability was estimated using cell titre glo reagent. Surviving fractions were calculated (normalised to vehicle treated cells).
RPE1 cells expressing a doxycycline-inducible HORMAD1 construct were treated with doxycycline or vehicle in order to induce HORMAD1 expression. […] Using cell titre glo as a measure of cell viability, surviving fractions were calculated (normalised to eribulin alone).
RPE1 cells expressing a doxycycline-inducible HORMAD1 construct were treated with doxycycline or vehicle. […] Using cell titre glo as a measure of cell viability, surviving fractions were calculated (normalised to olaparib alone).

[3] = system: SUM159 cells expressing a doxycycline-inducible HORMAD1 construct; assay: Clonogenic survival assay (SRB) in SUM159 cells with doxycycline-inducible HORMAD1; settings: increasing doses, 10-14 days, normalised to vehicle
Protocol: Cell confluence was analysed every 6 hours for 10 days, using incucyte software. Data are from 3 biological replicates and analysed using a two-way ANOVA. […] RPE1 cells expressing a doxycycline-inducible HORMAD1 expression construct were exposed to doxycycline or vehicle (H2O) and were exposed to 20 nM of the Aurora B inhibitor, AZD1152-HQPA. Cell confluence was analysed every 6 hours for 10 days, using incucyte software. Data are from 3 biological replicates and analysed using a two-way ANOVA. […] 7-10 days post drugging, cells were fixed, stained with SRB, and colonies were counted using Cell Profiler. […] 10 days post drugging, cells were fixed, stained with SRB, and colonies were counted using Cell Profiler. […] 7-10 days post drugging, cells were fixed, stained with SRB, and colonies were counted using Cell Profiler. […] 10 days post drugging, cells were fixed, stained with SRB, and colonies were counted using Cell Profiler.
as §1, with “cells). […]” for “cells). (FIGS. 7a, b and 14c and d).”, “ANOVA. […]” for “ANOVA. 5 days post drugging, cell viability was estimated using cell titre glo reagent.”, “ANOVA. […]” for “ANOVA.”

[4] = system: RPE1 cells expressing a doxycycline-inducible HORMAD1 expression construct; assay: Mitotic slippage by time-lapse microscopy in nocodazole-arrested RPE1 cells; settings: 300 nM nocodazole arrest, then 100-200 nM reversine, 50 nM BOS172722 or AZD1152-HQPA
Protocol: A. Diagram of experimental outline. Cells were exposed to doxycycline for 3 days, arrested in mitosis using 300 nM nocodazole or 100 nM Paclitaxel. Mitotic cells were filmed every 4 minutes for 1200 minutes, and the time cells remained arrested in mitosis before exiting via mitotic slippage was assessed. […] RPE1 cells expressing a doxycycline-inducible HORMAD1 cDNA expression construct were exposed to doxycycline or vehicle (H2O) for three days at which point cells were exposed to 300 nM nocodazole and filmed every 4 minutes using time-lapse microscopy. The time individual cells remained arrested in mitosis was quantified and presented as the % of cells arrested in mitosis at each time point. Data reflects a total of 125 cells from 3 biological repeats and was analysed using Mantel-Cox test. C. […] The time individual cells remained arrested in mitosis was quantified and presented as the % of cells arrested in mitosis at each time point. Data reflects a total of 125 cells from 3 biological repeats and was analysed using Mantel-Cox test. […] H1299 cells expressing two individual, doxycycline-inducible, shRNA particles targeting HORMAD1 as well as a non-targeting control were grown for three days in the presence of doxycycline at which point cell lysates were generated and analysed by SDS-PAGE and western blotting using anti-HORMAD1 and anti-β-ACTIN antibodies. […] The time individual cells remained arrested in mitosis was quantified and presented as the % of cells arrested in mitosis at each time point. Data reflects a total of 90 cells from 3 biological repeats and was analysed using Mantel-Cox test with Bonferonni correction. […] Mitotic cells were filmed every 2 minutes for 400 minutes, and the time taken before cells exited mitosis via mitotic slippage was assessed. […] The time individual cells remained arrested in mitosis was quantified and presented as the % of cells arrested in mitosis at each time point. […] The time individual cells remained arrested in mitosis was quantified and presented as the % of cells arrested in mitosis at each time point. […]

COc1cnccc1Nc1nc(-c2nn(Cc3c(F)cc(OCCO)cc3F)c3ccccc23)ncc1OC [BAY-1816032]
growth inhibition of HORMAD1-expressing versus HORMAD1-negative mouse tumour organoids [1]: more effectively inhibited | growth inhibition (surviving fraction) of HORMAD1 expressing versus HORMAD1-negative RPE1 cells, with eribulin ([2]; increasing doses alongside 0.4 nm eribulin, normalised to eribulin alone): more effectively inhibited | growth inhibition (surviving fraction) of HORMAD1 expressing versus HORMAD1-negative RPE1 cells, with olaparib ([2]; increasing doses alongside 0.47 μm olaparib, normalised to olaparib alone): more effectively inhibited | growth inhibition (surviving fraction) of HORMAD1 expressing versus HORMAD1-negative RPE1 cells ([2]; increasing doses, 5 days post drug, cell titre glo, normalised to vehicle): more effectively inhibited

CCN(CCO)CCCOc1ccc2c(Nc3cc(CC(=O)Nc4cccc(F)c4)[nH]n3)ncnc2c1 [AZD1152-HQPA]
clonogenic survival / sensitivity of HORMAD1 expressing versus HORMAD1-negative SUM159 cells [3]: reduced clonogenic survival; also recorded: increased Aurora B inhibitor sensitivity | mitotic slippage / mitotic exit in HORMAD1 induced RPE1 cells [4]: Very similar results
